Results as given in ChEMBL document CHEMBL1148788 (J Med Chem, 2007).

Key:
[1] = molecular target: Neuronal acetylcholine receptor; alpha4/beta2 (Rattus norvegicus, UniProt P09483+P12390); test: Displacement of [3H]epibatidine from rat recombinant alpha-4-beta-2 nAChR in HEK293 cell line; assay type: cell-based; settings: for pKi: hek293; for Ki: read-out: Ki
[2] = molecular target: T1, Neuronal acetylcholine receptor; alpha3/beta4 (Rattus norvegicus, UniProt P04757+P12392); test: Displacement of [3H]epibatidine from recombinant rat alpha-3-beta-4 nAChr in HEK293 cell line; assay type: cell-based; settings: for pKi: hek293
[3] = molecular target: Neuronal acetylcholine receptor; alpha4/beta4 (Rattus norvegicus, UniProt P09483+P12392); test: Displacement of [3H]epibatidine from recombinant rat alpha-4-beta-4 nAChr in HEK293 cell line; assay type: cell-based; settings: for pKi: hek293
[4] = molecular target: T2, Neuronal acetylcholine receptor subunit alpha-7 (Homo sapiens, UniProt P36544); test: Displacement of [3H]methyllycaconitine from human alpha-7 in tsA201 cells coexpressed with 5HT3A receptor; assay type: cell-based
[5] = molecular target: T2, Neuronal acetylcholine receptor subunit alpha-7; test: Displacement of [3H]methyllycaconitine from alpha7 nAChR in tsA201 cells co-expressed with Ric3; assay type: cell-based
[6] = molecular target: T3, 5-hydroxytryptamine receptor 3A (Homo sapiens, UniProt P46098); test: Displacement of [3H]GR65630 from human 5HT3A receptor in HEK293 cells; assay type: cell-based; settings: for pKi: hek293
T3 sequence (P46098 whole entry): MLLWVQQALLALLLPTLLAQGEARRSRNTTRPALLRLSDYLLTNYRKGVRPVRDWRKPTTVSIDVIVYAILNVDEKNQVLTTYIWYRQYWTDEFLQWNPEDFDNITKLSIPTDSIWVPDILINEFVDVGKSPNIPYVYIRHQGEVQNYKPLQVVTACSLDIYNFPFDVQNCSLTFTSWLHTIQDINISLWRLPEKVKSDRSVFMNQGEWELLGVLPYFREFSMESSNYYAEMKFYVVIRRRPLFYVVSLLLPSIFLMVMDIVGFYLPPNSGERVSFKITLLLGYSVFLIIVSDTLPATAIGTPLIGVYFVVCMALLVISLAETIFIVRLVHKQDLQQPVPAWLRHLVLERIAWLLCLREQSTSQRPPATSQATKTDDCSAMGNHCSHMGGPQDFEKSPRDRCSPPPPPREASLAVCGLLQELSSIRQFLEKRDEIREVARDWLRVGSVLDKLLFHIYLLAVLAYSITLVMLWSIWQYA

[7] = molecular target: T2, Neuronal acetylcholine receptor subunit alpha-7; test: Antagonist activity at human alpha-7 nAChR in tsA201 cells coexpressed with Ric3 by FMP assay; assay type: functional, cell-based
[8] = molecular target: T1, Neuronal acetylcholine receptor; alpha3/beta4; test: Antagonist activity at rat alpha3beta4 nAChR expressed in HEK293 cells by FMP assay; assay type: functional, cell-based, Homo sapiens; settings: for pIC50: hek293
[9] = molecular target: T3, 5-hydroxytryptamine receptor 3A; test: Antagonist activity at human 5HT3A receptor expressed in HEK293 cells by FMP assay; assay type: functional, cell-based; settings: for IC50: read-out: IC50; for pIC50: hek293
[10] = cells; assay type: functional, cell-based; settings: Homo sapiens, HEK293
[11] = molecular target: T4, Glycine receptor subunit alpha-1 (Homo sapiens, UniProt P23415); test: Antagonist activity at human glycine alpha-1 receptor in HEK293 cells by FMP assay; assay type: functional, cell-based; settings: for pIC50: hek293
T4 sequence (P23415 whole entry): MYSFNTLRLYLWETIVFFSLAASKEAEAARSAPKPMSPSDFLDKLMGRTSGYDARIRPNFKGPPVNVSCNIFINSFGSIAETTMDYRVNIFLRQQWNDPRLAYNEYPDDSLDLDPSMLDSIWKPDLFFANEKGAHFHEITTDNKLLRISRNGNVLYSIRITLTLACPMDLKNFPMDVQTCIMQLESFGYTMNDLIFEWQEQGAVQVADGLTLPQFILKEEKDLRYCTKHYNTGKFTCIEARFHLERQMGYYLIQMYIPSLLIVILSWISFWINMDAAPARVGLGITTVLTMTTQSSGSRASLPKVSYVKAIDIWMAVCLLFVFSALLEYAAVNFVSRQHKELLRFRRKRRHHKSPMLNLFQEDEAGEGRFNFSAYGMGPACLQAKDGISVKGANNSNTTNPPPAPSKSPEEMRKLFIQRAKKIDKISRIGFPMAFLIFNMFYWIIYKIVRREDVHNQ

T2 sequence (P36544 whole entry): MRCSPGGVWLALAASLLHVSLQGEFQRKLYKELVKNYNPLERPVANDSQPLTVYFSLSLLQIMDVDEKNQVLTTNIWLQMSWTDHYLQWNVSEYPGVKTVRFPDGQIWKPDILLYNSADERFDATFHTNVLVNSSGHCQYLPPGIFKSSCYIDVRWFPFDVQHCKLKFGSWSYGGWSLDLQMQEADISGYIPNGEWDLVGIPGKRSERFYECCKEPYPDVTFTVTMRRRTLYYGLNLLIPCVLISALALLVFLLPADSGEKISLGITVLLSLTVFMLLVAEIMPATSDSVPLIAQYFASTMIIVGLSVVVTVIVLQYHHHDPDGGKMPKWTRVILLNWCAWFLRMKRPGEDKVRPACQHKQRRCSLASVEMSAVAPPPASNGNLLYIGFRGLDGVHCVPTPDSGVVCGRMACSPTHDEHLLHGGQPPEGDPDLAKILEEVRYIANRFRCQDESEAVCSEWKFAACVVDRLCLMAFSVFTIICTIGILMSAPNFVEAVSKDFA
Chain of Neuronal acetylcholine receptor; alpha4/beta2 (P09483 whole entry): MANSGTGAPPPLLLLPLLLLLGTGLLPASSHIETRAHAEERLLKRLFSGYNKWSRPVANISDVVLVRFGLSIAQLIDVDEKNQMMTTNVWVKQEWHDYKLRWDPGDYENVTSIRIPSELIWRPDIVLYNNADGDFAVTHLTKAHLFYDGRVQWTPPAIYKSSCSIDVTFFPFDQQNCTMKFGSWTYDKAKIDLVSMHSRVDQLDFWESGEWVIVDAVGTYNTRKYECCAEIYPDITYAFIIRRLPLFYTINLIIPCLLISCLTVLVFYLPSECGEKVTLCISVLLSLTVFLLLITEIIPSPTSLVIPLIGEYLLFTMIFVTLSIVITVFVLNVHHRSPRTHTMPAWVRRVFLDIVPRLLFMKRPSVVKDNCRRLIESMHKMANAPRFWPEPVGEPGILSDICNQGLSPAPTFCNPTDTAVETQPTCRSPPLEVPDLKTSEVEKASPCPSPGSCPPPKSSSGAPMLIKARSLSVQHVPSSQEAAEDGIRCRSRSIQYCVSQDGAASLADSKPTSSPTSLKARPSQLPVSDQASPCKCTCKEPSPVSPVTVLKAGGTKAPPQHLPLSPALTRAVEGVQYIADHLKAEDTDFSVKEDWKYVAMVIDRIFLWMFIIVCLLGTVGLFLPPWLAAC
Chain of Neuronal acetylcholine receptor; alpha4/beta2 (P12390 whole entry): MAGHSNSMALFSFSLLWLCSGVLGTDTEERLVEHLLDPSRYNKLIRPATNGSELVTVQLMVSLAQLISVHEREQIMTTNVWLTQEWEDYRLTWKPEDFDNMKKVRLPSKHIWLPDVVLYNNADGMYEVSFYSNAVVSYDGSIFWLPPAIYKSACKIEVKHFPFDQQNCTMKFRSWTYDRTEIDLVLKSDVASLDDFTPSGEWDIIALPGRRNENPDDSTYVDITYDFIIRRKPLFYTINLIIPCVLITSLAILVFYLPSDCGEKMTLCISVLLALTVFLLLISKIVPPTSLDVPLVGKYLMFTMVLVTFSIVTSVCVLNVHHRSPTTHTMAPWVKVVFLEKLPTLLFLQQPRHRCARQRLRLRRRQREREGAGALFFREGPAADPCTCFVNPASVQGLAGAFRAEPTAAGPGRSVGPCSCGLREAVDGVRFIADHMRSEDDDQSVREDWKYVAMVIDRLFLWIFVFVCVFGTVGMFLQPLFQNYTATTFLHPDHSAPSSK
Chain of Neuronal acetylcholine receptor; alpha4/beta4 (P09483 whole entry): as the sequence (P09483 whole entry) above
Chain of Neuronal acetylcholine receptor; alpha4/beta4 (P12392 whole entry): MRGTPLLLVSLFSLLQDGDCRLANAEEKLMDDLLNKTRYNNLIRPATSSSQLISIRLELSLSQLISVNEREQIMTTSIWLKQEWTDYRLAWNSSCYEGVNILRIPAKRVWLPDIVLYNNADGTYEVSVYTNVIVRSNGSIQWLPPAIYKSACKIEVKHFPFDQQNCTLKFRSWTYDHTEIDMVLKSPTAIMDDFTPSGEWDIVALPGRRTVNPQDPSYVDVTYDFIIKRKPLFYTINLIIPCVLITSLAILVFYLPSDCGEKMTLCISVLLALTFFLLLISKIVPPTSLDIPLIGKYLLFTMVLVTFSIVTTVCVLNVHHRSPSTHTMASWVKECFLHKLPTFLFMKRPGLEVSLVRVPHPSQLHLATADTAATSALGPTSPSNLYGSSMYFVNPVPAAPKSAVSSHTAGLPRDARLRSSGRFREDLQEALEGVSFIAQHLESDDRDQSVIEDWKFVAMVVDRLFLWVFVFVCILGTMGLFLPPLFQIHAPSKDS
T1 sequence (P04757 whole entry): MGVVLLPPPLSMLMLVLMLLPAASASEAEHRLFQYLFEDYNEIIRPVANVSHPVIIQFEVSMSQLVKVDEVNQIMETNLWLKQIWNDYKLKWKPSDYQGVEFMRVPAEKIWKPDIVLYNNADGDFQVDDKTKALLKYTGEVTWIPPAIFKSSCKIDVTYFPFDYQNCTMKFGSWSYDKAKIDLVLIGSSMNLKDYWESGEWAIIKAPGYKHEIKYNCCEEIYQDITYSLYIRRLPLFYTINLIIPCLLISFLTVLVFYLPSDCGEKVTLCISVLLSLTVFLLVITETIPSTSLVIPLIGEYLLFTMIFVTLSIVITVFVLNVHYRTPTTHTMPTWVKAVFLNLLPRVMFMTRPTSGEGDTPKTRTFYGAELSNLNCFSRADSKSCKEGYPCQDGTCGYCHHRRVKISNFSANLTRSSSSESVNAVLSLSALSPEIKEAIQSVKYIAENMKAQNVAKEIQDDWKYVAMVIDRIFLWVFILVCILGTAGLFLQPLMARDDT
T1 sequence (P12392 whole entry): as the sequence (P12392 whole entry) above

Compound | pKi [1] | Ki [1] [µM] | Ki [2] [µM] | pKi [2] | Ki [3] [µM] | pKi [3] | Ki ([4]; read-out: Ki) [µM] | Ki ([4]; read-out: pKi (converted)) [µM] | Ki ([5]; read-out: Ki) [µM] | Ki ([5]; read-out: pKi (converted)) [µM] | Ki [6] [µM] | IC50 ([7]; read-out: IC50) [µM] | IC50 ([7]; read-out: pIC50 (converted)) [µM] | pIC50 [8] | IC50 ([8]; read-out: IC50) [µM] | IC50 [9] [µM] | IC50 ([10]; read-out: IC50) [µM] | IC50 ([10]; read-out: pIC50 (converted)) [µM] | IC50 [11] [µM] | pIC50 [11] | other results
O=[N+]([O-])c1ccc(C[N+]23CCC4[C@@H]5/C(=C\N6c7ccccc7[C@@]78CC[N+]9(Cc%10ccc([N+](=O)[O-])cc%10)CC%10=CCO[C@H]([C@@H]([C@H]67)[C@H]%10C[C@@H]89)N5c5ccccc5)[C@@H](C[C@@H]42)/C(=C\CO)C3)cc1.[Br-].[Br-] (stereo not given in full) | < 4 | > 100 | > 100 | < 4 | > 100 | < 4 | 0.11 | 0.126 | 0.098 | 0.1 | 100 | 2.5 | 2.45 | < 4 | > 100 | 30 | > 100 | > 100 | > 100 | < 4 | 
CC(=O)OCC[N+]12CC[C@@H]3[C@@H]4[C@@H]5[C@@H](OCC=C(C1)[C@@H]5C[C@@H]32)N1c2ccccc2[C@@]23CC[N+]5(CCOC(C)=O)CC6=CCO[C@H]([C@@H]([C@H]12)[C@H]6C[C@@H]35)N4c1ccccc1.[Br-].[Br-] (stereo not given in full) | < 4 | > 100 | > 100 | < 4 | > 100 | < 4 | 0.28 | 0.251 | 0.31 | 0.316 | > 100 | 1.6 | 1.62 | < 4 | > 100 | > 100 | > 100 | > 100 | > 100 | < 4 | pKi [6]: < 4; pIC50 [9]: < 4
C=CC[N+]12CC[C@@H]3[C@@H]4[C@@H]5[C@@H](OCC=C(C1)[C@@H]5C[C@@H]32)N1c2ccccc2[C@@]23CC[N+]5(CC=C)CC6=CCO[C@H]([C@@H]([C@H]12)[C@H]6C[C@@H]35)N4c1ccccc1.[Br-].[Br-] (stereo not given in full) | < 4 | > 100 | > 100 | < 4 | > 100 | < 4 | 0.066 | 0.0631 | 0.03 | 0.0316 | 100 | 0.28 | 0.282 |  | 100 | 100 | > 100 | > 100 | > 100 | < 4 | 
COc1ccc(C[N+]23CC[C@@H]4[C@@H]5/C(=C\N6c7ccccc7[C@@]78CC[N+]9(Cc%10ccc(OC)c(OC)c%10)CC%10=CCO[C@H]([C@@H]([C@H]67)[C@H]%10C[C@@H]89)N5c5ccccc5)[C@@H](C[C@@H]42)/C(=C\CO)C3)cc1OC.[Cl-].[Cl-] (stereo not given in full) | < 4 | > 100 | > 100 | < 4 | > 100 | < 4 | 0.27 | 0.251 | 0.2 | 0.2 | 100 | 2.6 | 2.63 |  | 100 | 30 | > 100 | > 100 | > 100 | < 4 | IC50 ([8]; read-out: pIC50 (converted)): 31.6 µM
C[N+]12CCC34c5ccccc5N5/C=C6/[C@H]7C[C@H]8[C@@]9(CC[N+]8(C)C/C7=C/CO)c7ccccc7N(/C=C(/[C@@H](C[C@@H]31)/C(=C\CO)C2)[C@H]54)[C@@H]69.[Cl-].[Cl-] (stereo not given in full) [TOXIFERINE] | < 4 | > 100 | 30 |  | > 100 | < 4 | 1.6 | 1.58 | 2.6 | 2.51 | > 100 | 9.5 | 9.55 |  | 30 | > 100 | > 100 | > 100 | > 100 | < 4 | pKi [6]: < 4; pIC50 [9]: < 4
C[N+](C)(Cc1ccc([N+](=O)[O-])cc1)Cc1c2n(c3ccccc13)Cc1c(C[N+](C)(C)Cc3ccc([N+](=O)[O-])cc3)c3ccccc3n1C2.[Br-].[Br-] | < 4 | > 100 | > 100 | < 4 | > 100 | < 4 | 2.1 | 2 | 3.9 | 3.98 | > 100 | 30 | 100 | < 4 | > 100 | 30 | > 100 | > 100 | > 100 | < 4 | pKi [6]: < 4
OC/C=C1/CN2CC[C@H]3[C@@H]2C[C@@H]1/C1=C/N2c4ccccc4[C@@]45CCN6CC7=CCO[C@H]([C@@H]([C@H]24)[C@H]7C[C@H]65)N(c2ccccc2)[C@@H]13 | < 4 | > 100 | 30 |  | > 100 | < 4 | 1.2 | 1.26 | 1.7 | 1.58 | 1.9 | 1.5 | 1.51 |  | 16 | 2.5 | > 100 | > 100 | > 100 | < 4 | 
